Data taken from patent publication US5075337A, “Alpha-deuterated 2-alkylaminoacetamide derivatives having reduced toxicity for treatment of CNS disorders” (G. D. Searle & Co., priority 1989, dated 1991).

What was measured:
[1] = target: T1, monoamine oxidase enzyme (MAO-B) (Rattus norvegicus, UniProt P19643); test: MAO-B enzyme inhibition assay (rat brain mitochondria, preincubation with inhibitor); assay type: biochemical, rat (Sprague Dawley)
T1 construct: 14C-beta-phenylethylamine substrate
T1 sequence (P19643 1-520): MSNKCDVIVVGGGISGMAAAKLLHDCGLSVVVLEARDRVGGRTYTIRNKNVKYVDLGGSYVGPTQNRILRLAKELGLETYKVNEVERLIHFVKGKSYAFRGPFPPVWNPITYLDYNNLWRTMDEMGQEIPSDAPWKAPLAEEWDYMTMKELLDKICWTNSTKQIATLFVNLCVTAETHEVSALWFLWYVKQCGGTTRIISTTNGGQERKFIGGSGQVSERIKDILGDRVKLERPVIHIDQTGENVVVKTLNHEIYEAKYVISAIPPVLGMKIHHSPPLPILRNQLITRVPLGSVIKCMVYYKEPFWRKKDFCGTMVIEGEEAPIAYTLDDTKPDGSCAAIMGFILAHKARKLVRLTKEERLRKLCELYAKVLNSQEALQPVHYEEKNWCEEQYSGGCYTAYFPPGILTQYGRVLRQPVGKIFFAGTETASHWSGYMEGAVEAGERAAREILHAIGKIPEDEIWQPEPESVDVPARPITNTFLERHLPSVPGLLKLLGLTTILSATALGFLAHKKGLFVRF
Description: Rat brain mitochondria were purified by a modification of the method of Dodd (Dodd Sprague Dawley rats of about 200 gr were decapitated and the brain was rapidly removed from the skull. Brains were homogenized with a glass-Teflon homogenizer in ice cold 0.32M sucrose (1/10, w/v). The homogenate was centrifuged at 2,400 g for 10 min at 4° C. The supernatant was centrifuged at 3,000 g for 10 min at 4° C. This last supernatant (8 ml) was poured into at tube containing 4 ml of 1.2M sucrose. The mitochondrial fraction is obtained after a centrifugation at 115,000 g for 30 min at 4° C. The mitochondrial pellet was suspended in 4 ml of 50 mM Na phosphate buffer and stored as aliquots at -30° C. […] Aliquots of the mitochondrial fraction were preincubated with ^2 H-milacemide or milacemide (200 μM in 50 mM Na phosphate buffer pH8) for different time periods, the samples were diluted with the incubation buffer, centrifuged and the pelleis were then used for the MAO assay. The enzymatic assay was performed in Eppendorf micro tubes (1.5 ml). The 100 μl total incubation volume contained 40 μl of 7 mM ^14 C-β-phenylethylamine, 20 μl of 50 mM Na phosphate buffer pH 8 and 40 μl of the pre-incubated mitochondrial fraction (0.2 mg protein/ml). The closed micro tubes were immediately shaken using a vortex and incubated during 4 min at 37° C. The reaclion was stopped by adding 20 μl of 1.5 N Hcl into the tube placed in an ice bath. The deaminated products were extracted with 600 μl of a toluene-ethyl acetate mixture (water saturated) and strongly mixed during 30 sec. The two layers were separated by centrifugation (10.000 g) for 10 min. Then, 400μL of the organic layer were added to 4 ml of lumagel in a scintillation counting vial. Blank values are obtained by incubating the mitochondrial fraction with Hcl 1.5M.

[2] = tested on: convulsions induced by 3-mercaptopropionic acid (3-MPA); test: Prevention of chemically induced convulsions (3-MPA); assay type: in vivo, mouse (male Swiss albino); conditions: 100 mg/kg oral; 3-MPA 120 mg/kg subcutaneously; two groups of 5 mice
Description: (§1) The anticonvulsive effect of a compound of the invention was examined for clonic, tonic convulsions and death induced by different convulsant agents, namely, 3-mercaptopropionic acid (3-MPA 120 mg/kg subcutaneously) and bicuculline (BIC, 0.6 mg/kg intravenously), (W. van Dorsser, D. Barris, A. Cordi and J. Roba; Arch. Int. Pharmacodyn., 266: 239-249 (1983)). The compounds of the invention were administered orally at dosage of either 100 mg/kg (3-MPA) or 30 mg/kg (BIc) in a volume of 10 ml/kg, each to 5 mice, 30 minutes or 2 hours before convulsions were induced. Test mice used were male Swiss albino mice weighing 22-33 g, CDl, charles River, France, housed in group of 10 on a 12 hours light-dark cycle for at least 1 week before use, and fasted overnight. The number of mice protected against tonic convulsions and the number of dead mice were noted. The results are given as a score which represents the total number of mice protected by a dose of 100 mg/kg for two groups of 5 animals (3-MPA) or the percentage of mice protected by a dose of 30 mg/kg in 4 groups of 5 animals (BIC).

[3] = tested on: convulsions induced by bicuculline (BIC); test: Prevention of chemically induced convulsions (bicuculline); assay type: in vivo, mouse (male Swiss albino); conditions: 30 mg/kg oral; bicuculline 0.6 mg/kg intravenously; 4 groups of 5 mice
Description: as §1

[4] = in words; literature; cited from earlier work
[5] = tested on: MAO-B enzyme; conditions: in words; literature; cited from earlier work
[6] = Comparative pharmacokinetic study, 1:1 mixture of milacemide and ^2 H-milacemide; assay type: in vivo, cynomolgus monkey (Macaca fascicularis); conditions: for ^2 H-milacemide/milacemide ratio, plasma AUC / ^2 H-milacemide/milacemide ratio, urine 24 hours excretion: 1:1 mixture
Description: A comparative pharmacokinetic study was conducted in the cynomolgus monkey (Macaca fascicularis) with a 1:1 mixture of milacemide and ^2 H-milacemide administered to 4 males and 4 females used in this study. One animal of each sex received the mixture either by the i.v. route at the dose of 30 mg/kg, or by the intragastric route at the dose of 30 mg/kg or 100 mg/kg, or 300 mg/kg. Plasma samples were drawn from the males and 0-24 hours urine samples were collected by the females. Preliminary determinations of milacemide in the urine samples were made by HPLC. […] The aqueous solution was made alkaline by the addition of 0.3 mL of 0 5M borate buffer at pH 9.3. Derivatization occurs by addition of 0.3 mL of a solution of fluorescamine in acetone (75 g/L), then 10 to 20 pL aliquots were injected on a 5 Bondapak C18 column eluted by a mixture of tetrahydrofuran, water and 0.5M borate buffer (2/6/2) adjusted to pH 8 by the addition of hydrochloric acid. […] Analysis of the ratio of unchanged deutero milacemide versus milacemide, was performed by GC-MS Milacemide and ^2 H-milacemide extracted from plasma aliquots were transformed into their respective N-trifluoroacetylated nitrile by reaction with trifluoroacetic anhydride. After separation from the impurities, on a 3% OV 17 column, the mass spectra were obtained in the chemical ionization mode by ammonia on a Riber 10-10 B mass spectrometer. […] Quantification was performed using selected ion monitoring (SIM) on the base peaks mentioned.

[7] = 200 μM, preincubation, pH 8, rat brain mitochondria, 50% inhibition
[8] = compared with milacemide, in words

Row | Structure (SMILES) | time to inhibit MAO-B activity by 50% [1, 7] [min] | 3-MPA (% Protected) [2] [%] | BIC (% Protected) [3] [%] | brain bioavailability [4] | metabolism in the peripheral system by the MAO-B enzyme [5] | time to reach the same level of inhibition (50%) of MAO-B [1, 7] | fold more time needed to reach the same level (50%) of MAO-B inhibition, ^2 H-milacemide vs milacemide ([1]; ^2 H-milacemide relative to milacemide) [fold] | ^2 H-milacemide/milacemide ratio, plasma AUC ([6]; 30 mg/kg i.g.) | ^2 H-milacemide/milacemide ratio, urine 24 hours excretion ([6]; 30 mg/kg i.g.) | ^2 H-milacemide/milacemide ratio, plasma AUC ([6]; 30 mg/kg i.v.) | ^2 H-milacemide/milacemide ratio, urine 24 hours excretion ([6]; 30 mg/kg i.v.) | ^2 H-milacemide/milacemide ratio, plasma AUC ([6]; 100 mg/kg i.g.) | ^2 H-milacemide/milacemide ratio, urine 24 hours excretion ([6]; 100 mg/kg i.g.) | ^2 H-milacemide/milacemide ratio, plasma AUC ([6]; 300 mg/kg i.g.) | ^2 H-milacemide/milacemide ratio, urine 24 hours excretion ([6]; 300 mg/kg i.g.) | first pass effect [6, 8] | half-life [6, 8] | metabolic clearance [6, 8]
1 | CCCCCNCC(N)=O [milacemide, 2-n-pentylaminoacetamide, reference compound] | 30 | 20 | 65 | limited brain bioavailability | metabolized in the peripheral system by the MAO-B enzyme | – | – | – | – | – | – | – | – | – | – | – | – | –
2 | NNCCc1ccccc1 [phenelzine] | – | – | – | limiting its brain bioavailability | metabolized in the peripheral system by the MAO-B enzyme | – | – | – | – | – | – | – | – | – | – | – | – | –
3 | [2H]C([2H])(CCCC)NCC(N)=O [^2 H-milacemide, 2-(1,1-dideuteropentylamino)acetamide] | – | 10 | 45 | – | – | at least 3 hours | 6 | 14.6 | 7.4 | 2.6 | 3.1 | 9.2 | 5.2 | 7.1 | 3.7 | reduced first pass effect | prolonged | decreased metabolic clearance
